Assay results: patent publication US20210054320A1, “NEURON CULTIVATION DEVICE, NEURON CULTIVATING METHOD, CULTIVATED NEURON, ANALYSIS AND IDENTIFICATION OF PROTEIN IN AXON BUNDLE, AND USAGE OF CULTIVATED NEURON” (THE FOUNDATION FOR THE PROMOTION OF INDUSTRIAL SCIENCE, priority 2016, published 2021)

What was measured:
Type in all cases: cell-based
[1] = tested on: motoneurons derived from human iPS cells (409B2 cell lines); assay: oxidative stress test, Directionality (orientation of axon) after Tau 1 immunostaining; settings: H2O2 3 hour treatment, PBS washing, culture medium with or without Edaravone; evaluated two days after treatment; highest = negative control
Protocol: Here, cell body spheroids were produced by inoculating motoneurons derived from human iPS cells (409B2 cell lines) in the nonadherent cultivation plate 10. Then, after 10 days of cultivation, the cell body spheroids were inoculated in the first chamber 12a of the module 11 of the cultivation plate 10. Then, after 30 days of cultivation, the treatments of the following (1)-(3) conditions were accomplished.
(1) control PBS (Phosphate Buffered Saline) washing>>>culture medium
(2) H2O2 3 hour treatment>>>PBS washing>>>culture medium
(3) H2O2 3 hour treatment>>>PBS washing>>>culture medium containing Edaravone
Two days after the treatment, evaluation was done after immunostaining by marker Tau 1. The evaluation item was Directionality, which was the orientation of axon. Specifically, the orientations of objects in FIG. 22 were measured In this case, 0 degree indicated the direction of fluid conduit (channel 13). Since the axons were bundled and extended in the same direction, their morphological changes in the channel 13 could be compared between in case of under oxidative stress, as shown in FIG. 22 (b), and in case of under oxidative stress accompanied by application of antioxidant (Edaravone), which was used as neurological disease drug, as shown in FIG. 22 (c). […]

[2] = tested on: motoneurons derived from human iPS cells (409B2 cell lines); assay: calcium imaging of motoneuron spheroid with axon bundle after KCl stimulation; settings: 1 [mol] of KCl provided to the cell spheroid after fluorescent treatment
Excerpt: FIG. 13 is a set of photographs showing motoneurons used for calcium imaging. In FIG. 13, (a) is a photograph of a spheroid with a bundle of axons outside the cultivation plate before adding calcium, (b) is a photograph of a spheroid with a bundle of axons outside the cultivation plate after adding calcium. In the present experiment, motoneurons derived from human iPS cells (409B2 cell lines) were used. The cell spheroids of the motoneurons were inoculated in the first chambers 12a and cultivated. The motoneurons and the cell spheroids were gained in the same way as mentioned above and the cultivation was accomplished in the same way as mentioned above. After cultivation, one of the motoneurons with a well grown and extended bundle of axons was extracted or brought out from the module 11 of the cultivation plate 10. Then 1 [mol] of KCl was provided to the cell spheroid, so that fluorescence became intense, as shown in FIG. 13(b), as a result of electrophysiological activity induced by the stimulation of KCl.

[3] = tested on: motoneurons derived from human iPS cells (409B2 cell lines); assay: ER stress test on axon bundle (form and orientation of axon); settings: culture fluid including 1.5 [mol] of thapsigargin for 5 hours, evaluated 6 days later, versus untreated
Excerpt: The first experiment was accomplished to confirm the effect of ER stress against motoneuron using thapsigargin. In the first experiment, motoneurons derived from human iPS cells (409B2 cell lines) were used. The cell body spheroids of the motoneurons were inoculated in the first chambers 12a and cultivated. The motoneurons and the cell body spheroids were gained in the same way as mentioned above and the cultivation was accomplished in the same way as mentioned above. After cultivation, one of the motoneurons with a well grown and extended axon bundle was treated with culture fluid including 1.5 [mol] of thapsigargin for 5 hours. Then, 6 days later, the form of the axon bundle was evaluated, as shown in FIG. 17(b), in comparison with another axon bundle of the motoneurons not treated with any thapsigargin, as shown in FIG. 17(a). It can be said that, when suffering stress, the orientation of the axon becomes low or the axon degenerates.

Row | Compound | Directionality of the axon bundle in the direction of fluid conduit (0 degree), order among conditions [1] | further results
1 | CC1=NN(c2ccccc2)C(=O)C1 [Edaravone] | the second | 
2 | OO [H2O2] | the third | 
3 | [Cl-].[K+] [KCl] |  | electrophysiological activity (fluorescence) of motoneuron including cell spheroid and bundle of axons [2]: became electrophysiologically active
4 | C/C=C(/C)C(=O)O[C@H]1C(C)=C2[C@H]([C@@H]1OC(=O)CCCCCCC)[C@@](C)(OC(C)=O)C[C@H](OC(=O)CCC)[C@@]1(O)[C@H]2OC(=O)[C@@]1(C)O [thapsigargin] |  | form of the axon bundle under ER stress [3]: became deformed
